In PMC12467903, “A Sensitive Electrochemical Cholinesterase-Inhibiting Biosensor for Organophosphorus Pesticides Based on Ti3C2TX MXene Quantum Dots” (Biosensors, 2025):

Experiments:
Format in all cases: biochemical
[1] = target: T1, acetylcholinesterase (AChE) (Electrophorus electricus, UniProt O42275); test: DPV peak current suppression with immobilized AChE ([…] at […])
[2] = target: T1, acetylcholinesterase (AChE); test: electrochemical detection of thiocholine from hydrolysis by immobilized AChE
[3] = target: T1, acetylcholinesterase (AChE); test: electrochemical (DPV/EIS/CV) inhibition of immobilized AChE, acetylthiocholine substrate

T1 sequence (O42275 24-633): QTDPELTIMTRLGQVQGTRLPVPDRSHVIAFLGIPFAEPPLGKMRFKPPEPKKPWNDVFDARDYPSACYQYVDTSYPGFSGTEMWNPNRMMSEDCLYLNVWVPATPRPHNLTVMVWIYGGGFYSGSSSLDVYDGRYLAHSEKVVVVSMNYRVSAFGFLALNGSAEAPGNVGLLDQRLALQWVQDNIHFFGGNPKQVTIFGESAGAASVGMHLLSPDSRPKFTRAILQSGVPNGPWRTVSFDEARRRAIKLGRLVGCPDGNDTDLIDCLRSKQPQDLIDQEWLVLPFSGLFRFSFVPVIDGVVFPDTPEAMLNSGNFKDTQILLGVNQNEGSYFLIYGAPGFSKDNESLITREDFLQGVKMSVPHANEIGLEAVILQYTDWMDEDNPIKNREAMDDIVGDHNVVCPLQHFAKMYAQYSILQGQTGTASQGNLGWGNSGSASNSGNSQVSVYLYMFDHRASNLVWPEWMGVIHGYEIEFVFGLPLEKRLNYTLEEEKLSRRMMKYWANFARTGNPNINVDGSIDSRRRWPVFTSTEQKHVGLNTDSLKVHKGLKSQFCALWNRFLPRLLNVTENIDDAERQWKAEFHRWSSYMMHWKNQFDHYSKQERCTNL

SMILES: COP(=O)(NC(C)=O)SC (stereo not drawn) [ACE, acephate]
- percent DPV peak current suppression [1]: 37% at 2 nM

SMILES: CC(=O)SCC[N+](C)(C)C [ACTI, acetylthiocholine iodide]
- electrochemical detection of thiocholine from hydrolysis by immobilized AChE [2]: In the absence of OP, AChE efficiently hydrolyzed ACTI into electroactive thiocholine (TCh)

SMILES: CCOP(=S)(OCC)Oc1nc(Cl)c(Cl)cc1Cl [CPS, chlorpyrifos]
- Ki [3]: 62 nM
